Results on two compounds are retold here after patent US9023320B2, “Method of producing a composition, composition and its use” (GE Healthcare AS, priority 2004, dated 2015).

The subject of series [1] is R3230AC rat mammary adenocarcinoma. Kind of series: Tumour imaging using hyperpolarised 13C-pyruvate as imaging agent (13C-MR imaging of tumour-bearing rats). It is filed as in vivo. The protocol: R3230AC is a rat mammary adenocarcinoma that can be maintained in female Fischer 344 rats. To establish the animal tumour model, a frozen vial of R32030 cells containing RPMI 1640, 10% FBS and 10% DMSO was rapidly thawed in 37° C. Thereafter, the cell solution was transferred to FBS and increasing volumes of RPMI 1640 were added. Finally, the cell suspension was transferred to a 25 cm^2growth flask and put into an incubator at 37° C., 5% CO2. Growth media were changed every other day. At the day of rat infection, removal of cells was carried out either by mechanical force or by means of trypsin. Cells were washed using phosphate buffer lacking calcium and magnesium. Trypsin (0.05% trypsin in 0.02% EDTA) was added for 2-5 min. Then, 5 ml FBS was added and the cells were transferred into a beaker containing RPMI 1640 with FCS and antibiotics (100 IU/ml penicillin, 100 IU/ml streptomycin and 2.5 µg/ml amphotericin […]). The cell solution was centrifugated and the cell pellet was resuspended in 20 ml RPMI with FBS and antibiotics, centrifugation and resuspension was repeated. The cells were then aliquoted to vials containing 4×10^6 cells/ml RPMI 1640. To obtain donor tumours, female Fischer 344 rats (Charles River, 180-200 g) were anaesthetised and 0.3 ml of the cell suspension was subcutaneously injected in the inguinal region on both sides. 15 and 22 days later, pieces of tumour were prepared as described in F. A. Burgener et al., Invest Radiol 2216 (1987), 472-478; S. Saini et al., J. Magn. Reson, 129/1 (1997), 35-43). Two incisions were made on the ventral abdomen of recipient female Fischer rats. A tumour piece was inserted into each pocket and the incisions were closed. Rats were brought to imaging 12-14 days after tumour engrafting.
Weighed rats were anaesthetised using isoflurane (2-3%) and kept on a heated table to ensure a body temperature of about 37° C. A catheter was introduced into the tail vein and into the arteria carotis communis sinistra. The rats were transported to the MR machine and placed on a home-built pad that was heated to approx. 37° C. by means of circulating FC-104 Fluorinert. This liquid will not give rise to background signals in ^1H- and ^13C-MR imaging. Anaesthesia was continued by means of 1-2% isoflurane delivered via a long tube to an open-breathing system at a rate of 0.4 L/min. The arterial catheter was connected via a T-tube to a pressure recorder and a pump delivering saline (rate […]) to prevent catheter clotting. Rats were positioned in a rat MR coil (Rapid Biomedical, Germany) and imaging using a standard proton MR imaging sequence to get anatomical information and to determine the location of the tumour.
Based on the proton frequency found by the MR system the MR frequency for ^13C1-alanine was calculated according to the following equation: Frequency ^13C1-alanine=0.25144×[(system frequency proton×1.00021)−0.000397708]
The frequency calculated positioned the MR signal arising from ^13C1-alanine on resonance with ^13C1-lactate on the left and ^13C1-pyruvate resonating on the right of ^13C1-alanine. An unlocalised MR spectroscopy sequence was run to ensure that the ^13C-MR coil and the system MR frequency had been set up correctly. The ^13C-image location was positioned to cover the tumour (slice thickness 10 mm, in plane pixel size 5×5 mm^2). In the reconstruction phase, the image data was zero-filled to result in 2.5×2.5×10 mm^3 resolution. ^13C1-pyruvate in TRIS buffer (90 mM) was injected in a dose of 10 ml/kg during a period of 12 s with a minimum volume of 2 ml into the tail vein and 30 s after the start of the injection (i.e. 18 s after finishing the injection), the chemical shift ^13C-MR sequence was started. 5.4 Analysis of the MR Imaging Data
In the reconstruction phase, the matrix was zero-filled to 32×32, a mathematical operation that helps to improve the spatial resolution. […]

Series [2] in a line: DNP polarisation of 13C1-pyruvic acid, solid-state 13C-NMR DNP enhancement. It counts as physicochemical. The conditions noted are these: 20 mM Tris(8-carboxy-2,2,6,6-tetra(hydroxyethoxy)methyl-benzo[1,2-d:4,5-d']bis(1,3)dithiole-4-yl)methyl sodium salt; 1.2 K, 3.35 T, 93.950 GHz; from thermal equilibrium and enhanced NMR signal. The protocol: A 20 mM solution was prepared by dissolving Tris(8-carboxy-2,2,6,6-tetra(hydroxyethoxy)methyl-benzo[1,2-d:4,5-d′]-bis-(1,3)-dithiole-4-yl)methyl sodium salt in ^13C1-pyruvic acid (83.1 mg). The sample was mixed to homogeneity, placed in a sample cup and inserted in the DNP polariser. The sample was polarised under DNP conditions at 1.2 K in a 3.35 T magnetic field under irradiation with microwave (93.950 GHz). The ^13C-NMR signal from the sample was acquired using a Varian Inova-200 NMR spectrometer. The DNP enhancement was calculated from a measurement of the thermal equilibrium ^13C-NMR signal and the enhanced NMR signal. 16% ^13C polarisation was obtained.

Where [3] appears, read: rat, R3230AC tumours, 90 mM in TRIS, 10 ml/kg i.v. tail vein, imaging 30 s after start of injection.

With `CC(=O)[13C](=O)[O-].[Na+]` [^13C1-pyruvate, sodium ^13C1-pyruvate], in series [1] (discrimination of tumour and healthy tissue, 26 tumours in 17 rats), the “overall rate of success” value stood at 100%. The same compound gave a pH in series [1] (injected solution, mean ±SD) of 8.08±0.14. The “average polarisation at the time of injection” value in series [1] (mean ±SD, solution in TRIS buffer injected into rats) was 21.2±2.9%. In series [1] (setting [3]), the “metabolic contrast in the tumour area, lactate signal” value was 24 out of 26; the “metabolic contrast in the tumour area, lactate signal, alanine corrected” value is recorded as 26 out of 26; the “metabolic contrast in the tumour area, lactate signal, pyruvate corrected” value was 26 out of 26.

In the case of `CC(=O)[13C](=O)O` [^13C1-pyruvic acid], the 13C polarisation in series [2] is 16%.
